One assay relates to K. pneumoniae. Briefly: 2-NBDG uptake fluorescence labeling. It is filed as cell-based. Particulars: overnight refrigerator stock, approximately 1 min, 1 μM 2-NBDG. From the text: (§1) 2-NBDG (Molecular Probes) is a fluorescent derivative (green channel) of D-glucose that is internalized by active bacteria.
Another assay has as its system H. influenzae. Briefly: 2-NBDG uptake fluorescence labeling. It is filed as cell-based. The note with it: overnight refrigerator culture, viability verified.
Excerpt: as §1

Assay [1] relates to E. coli. Description: 2-NBDG uptake fluorescence labeling. It is filed as cell-based. Particulars: overnight refrigerator stock, approximately 1 min, 1 μM 2-NBDG.
Excerpt: as §1

For a further assay, the system named is S. aureus. Description: 2-NBDG uptake fluorescence labeling. It is filed as cell-based. Particulars: overnight refrigerator culture, viability verified.
Excerpt: as §1

For assay [2], the system named is Pseudomonas aeruginosa (PSAE). Description: Culture (Cx) susceptibility result, respiratory specimens. It counts as cell-based. On the procedure:
(§2) DHMC specimens were 7-21 days old. […] Controls used standard culturing methods (Cx).
(§3) (ABCC). Concurrent quantitative culture (qCx) was performed on specimens.

Assay [3] deals with Acinetobacter spp. (ABCC). Description: MADM resistance phenotype test, respiratory specimens. It counts as cell-based, Acinetobacter sp.
A further assay relates to S. maltophilia (Steno). Briefly: MADM (BACcel) growth analysis sensitivity, surveillance mini-BAL. It counts as cell-based. On the procedure: (§4) Adult MICU patients with identified surrogate were included within 72 hours of intubation and if anticipated to require MV for >48 h. Moribund state or pregnancy were exclusions. Surveillance mini-BAL (Combicath, Plastimed) was performed on Day 1, 3, 5, 7 and 10 of MV. Samples were split and processed for both a) routine respiratory quantitative microbiological culture and sensitivity assays (>48 h result availability) and b) rapid (<8 h) flowcell/surface-capture assays using the MADM system. Viable microorganisms were identified using growth analysis enhanced by a focused VAP antibody panel (S. aureus, P. aeruginosa, A. baumannii). Untypable organisms were also reported. Sensitivity was assessed using growth analysis. Attending physicians were blinded to MADM system results.
(§5) BAL sample were prepared, removing debris and separating microorganisms from other sample material. Sample microorganisms were introduced into a multichannel fluidic cassette as described elsewhere herein. Bacteria were concentrated and retained on the lower surface of all flowcells using low-voltage electrical field (5 min). Antibody labeling of bacteria in flowcells was used to aid identification.
(§6) The automated digital microscopy system was used to perform darkfield imaging of 10 fields of view every 10 minutes for 180 minutes in each flowcell channel. Initial epifluorescence imaging was also performed for antibody detection. […] Identification consisted of probability scores based on microorganism morphology and growth rates. Antibody labeling identification data was also incorporated. Observed microorganisms were then classified as STAU, PSAE, or non-target. Antibiotic responses were used to aid identification when appropriate. Quantitation was performed by counting identified microorganism and computing original specimen CFU/mL.

Assay [4] concerns Pseudomonas aeruginosa (PSAE). Description: MADM resistance phenotype test, respiratory specimens. Particulars: for MADM resistance phenotype: PSAE. It is filed as cell-based. On the procedure:
as §3
(§7) 20 μL samples of prepared specimen were pipetted into independent flowcell channels and a low-voltage electrical field was applied for 5 minutes. The electrical field concentrated bacteria onto a functional surface coating that immobilized the bacteria on the lower flowcell surface. Each flowcell channel received only one type of test reagent solution that contained a selective agent if required (only for channels used to test AB, sulbactam 32 μg/mL).
(§8) The instrument acquired images at 10-minutes intervals for 180 minutes, using 10 fields of view in each flowcell channel through a 20× objective. Imaging used darkfield illumination. Identification variables included response to selective agents (AB with sulbactam), cell morphology, growth morphology, and growth rate.
(§9) Identification algorithms applied to each individual immobilized bacterial cell. The system measured the amount of change in mass over time to compute growth rates. Identification consisted of computing and combining probability scores for morphology, response to selective media, and growth rates to produce a receiver operating characteristic curve (ROC) to derive classification criteria.

The next assay relates to Enteric. Briefly: MADM (BACcel) growth analysis sensitivity, surveillance mini-BAL. It is filed as cell-based. The note with it: specimen 005-D7, BACcel ID Enteric, 1.26 × 10^5 CFU/ml. On the procedure:
as §4, §5, §6

Assay [5] deals with Staphylococcus aureus (STAU). Description: Culture (Cx) susceptibility result, respiratory specimens. It is filed as cell-based. Here is the method: as §2, §3
Assay [6] concerns Staphylococcus aureus (STAU). Description: MADM resistance phenotype test, respiratory specimens. It counts as cell-based. Here is the method:
as §3, §7, §8, §9

The subject of assay [7] is E. coli. Description: DiBAC4(3) membrane potential staining. It counts as cell-based. The note with it: heat-killed E. coli, 10 g/ml DiBAC4(3), 15 min at room temp. Here is the method:
DiBAC4(3) (Molecular Probes) is an anionic dye that enters depolarized cells (i.e., cells lacking a membrane potential) and fluoresces in the […] channel when it binds to intracellular proteins or membranes. Using this indicator, 18.5% of an overnight refrigerator stock (control) and 95% of heat-killed E. coli stained with 10 µg/ml DiBAC4(3) after a 15 min incubation period at room temp.

Assay [8] has as its system Klebsiella pneumoniae (KP). Briefly: MADM ertapenem nonsusceptibility / KPC assay. It is filed as cell-based. On the procedure:
We adapted a commercial inverted microscope and camera with custom image analysis software and a purpose-built 32-channel disposable fluidic cassette (FIG. 4A). Cassette flowcells (FIG. 4B) had transparent top and bottom surfaces to allow microscope imaging. The bottom surface was coated with poly-L-lysine to immobilize live bacteria.
We grew isolates on blood agar, suspended colonies in tryptic soy broth for 2 hours, then centrifuged and resuspended log-phase bacteria in low ionic strength electrokinetic buffer.
MADM system analysis was performed using a 32-channel disposable fluidic cassette (FIG. 4A) to measure growth of immobilized bacteria. We separately tested PA clinical isolates for nonsusceptibility (NS) with amikacin (AN) at 32 μg/mL, and AB isolates with imipenem (IMP) at 8 μg/mL or ceftazidime (CAZ) at 8 μg/mL.
10 μL aliquots of 5E+7 CFU/mL were pipetted into separate flowcells for each isolate and test condition. Microorganisms were electrokinetically concentrated onto the flowcell detection surface with an electrical field to the positively charged lower surface to immobilize cells and yield 10-100 bacteria per field of view (FIG. 4B). […] The system measured growth at 10-minute intervals. […] Growth was evaluated, interpreting results for PA, AB, and KP-ETP as NS if growth had not arrested within 3 hours. […]

In assay [9] the test system is E. coli. Description: Plasmolysis (cell size response to osmotic pressure). It is filed as cell-based. Particulars: exposed to 0.9% NaCl. The text has this: Plasmolysis is a method of detecting membrane integrity by exposing cells to a very hypertonic solution, such as may be performed by subjecting a cell to osmotic pressure by manipulating the concentration of a solute, for example, sodium chloride.

The subject of another assay is damaged membranes. Description: Propidium iodide membrane integrity staining. Particulars: compared with YO-PRO-1. It is filed as cell-based. From the text: Propidium iodide (PI; Sigma) is another red fluorescent DNA-intercalcater that penetrates damaged membranes but not intact membranes.
Assay [10] concerns heat-killed cells and isopropyl alcohol killed cells. Description: CFDA/CFDA-SE esterase fluorescence in killed cells. It counts as cell-based. The note with it: two hour post-heat-kill delay. From the text:
Carboxyfluorescein diacetate/carboxyfluorescein diacetate succinimidyl ester (CFDA/CFDA-SE; Molecular Probes) compounds are converted into amine-reactive fluorescent molecules when cleaved by esterases present within active cells. When CFDA-SE is taken up by live cells, the fluorescent molecule produced by esterase cleavage and amine reaction is retained inside the cell. […] The product formed by uptake and processing of CFDA, on the other hand, should be more “leaky” over time and may exit a dead cell. […] Shorter delay times have not yet been investigated but may be compatible with avoiding false positive results while providing a shorter assay period.

Setting [11] is: specimen 006-D1, BACcel ID Steno, 7.68 × 10^5 CFU/ml.
[12] abbreviates: specimen 006-D3, BACcel ID Steno, 1.60 × 10^4 CFU/ml.

This is an account of results in patent US9677109B2, “Rapid determination of microbial growth and antimicrobial susceptibility” (priority 2013, dated 2017).

Turning to `O=[N+]([O-])c1ccc(N[C@H]2C(O)O[C@H](CO)[C@@H](O)[C@@H]2O)c2nonc12` (stereo partly shown) [2-NBDG], the fluorescent labeling result in the assay on K. pneumoniae is on record as “fluorescently labeled”; in the assay with H. influenzae it was “did not fluoresce”; with E. coli [1], “fluorescently labeled”; in the assay with S. aureus, “did not fluoresce”.

On to `NCC[C@H](O)C(=O)N[C@@H]1C[C@H](N)[C@@H](O[C@H]2O[C@H](CN)[C@@H](O)[C@H](O)[C@H]2O)[C@H](O)[C@H]1O[C@H]1O[C@H](CO)[C@@H](O)[C@H](N)[C@H]1O` [AN, amikacin], for which the “Cx (culture result) susceptibility” value in assay [2] (specimen DH 430, Mini-BAL) is reported as “S”; in [2] (specimen DH 554, BAL), “S”; in assay [2] (specimen DH 641, Mini-BAL), “S”. The MADM resistance phenotype result in assay [3] (ABCC specimen (specimen id not given)) is on record as “S”; in assay [4] (specimen DH 430, Mini-BAL) it was “S”; in assay [4] (specimen DH 554, BAL), “S”; in assay [4] (specimen DH 641, Mini-BAL) it was “S”. Further, the susceptibility entry in [3] (all ABCC-containing specimens) and in assay [4] (all PSAE-containing specimens) was “susceptible” in each case. The “Phenotype, sensitivity” value is given as “growth, TZP-” with S. maltophilia (Steno) (setting [11]) and “growth, TZP-” in the assay on S. maltophilia (Steno) (setting [12]).

For the compound `CC(C)(O/N=C(\C(=O)N[C@@H]1C(=O)N2C(C(=O)[O-])=C(C[n+]3ccccc3)CS[C@H]12)c1csc(N)n1)C(=O)O` [CAZ, ceftazidime], the “Phenotype, sensitivity” value in the assay on Enteric is “all growth”; with S. maltophilia (Steno) (setting [11]), “growth, TZP-”; with S. maltophilia (Steno) (setting [12]) it was “growth, TZP-”.

For the compound `CCC[C@@H]1C[C@@H](C(=O)N[C@@H]([C@H]2O[C@H](SC)[C@H](O)[C@@H](O)[C@H]2O)[C@H](C)Cl)N(C)C1` [CLI, clindamycin], the “Cx (culture result) susceptibility” value in [5] (specimen DH 425, Mini-BAL) is listed as “S”; in assay [5] (specimen DH 427, Mini-BAL), “S”; in assay [5] (specimen DH 439, Mini-BAL) it was “S”; in [5] (specimen DH 440, BAL) it was “S”; in assay [5] (specimen DH 457, BAL), “S”; in assay [5] (specimen DH 485, BAL), “S”. For the same compound, the “Cx (culture result) susceptibility” value in [5] (specimen DH 509, BAL) is reported as “S”; in assay [5] (specimen DH 514, Mini-BAL) it was “S”; in [5] (specimen DH 543, BAL), “S”; in assay [5] (specimen DH 550, BAL), “S”; in [5] (specimen DH 556, Mini-BAL) it was “S”; in [5] (specimen T12, ETA), “S”. The MADM resistance phenotype result was “S” in [6] (specimen DH 425, Mini-BAL); “S” in [6] (specimen DH 427, Mini-BAL); “S” in [6] (specimen DH 439, Mini-BAL); “S” in assay [6] (specimen DH 440, BAL); “S” in assay [6] (specimen DH 457, BAL); “S” in [6] (specimen DH 485, BAL). The MADM resistance phenotype result is recorded as “S” in [6] (specimen DH 509, BAL); “S” in assay [6] (specimen DH 514, Mini-BAL); “S” in assay [6] (specimen DH 543, BAL); “S” in assay [6] (specimen DH 550, BAL); “S” in assay [6] (specimen DH 556, Mini-BAL); “S” in assay [6] (specimen T12, ETA).

`CCCCN1C(=O)C(=CC=Cc2c(O)n(CCCC)c(=O)n(CCCC)c2=O)C(=O)N(CCCC)C1=O` [DiBAC4(3)]: the cells stained with E. coli [7] came out at 95%.

For the compound `C[C@@H](O)[C@H]1C(=O)N2C(C(=O)O)=C(S[C@@H]3CN[C@H](C(=O)Nc4cccc(C(=O)O)c4)C3)[C@H](C)[C@H]12` [ETP, ertapenem], the “growth of susceptible strains” value in assay [8] (ETP at 16 μg/mL, FIG. 20) was “fail to grow”. Also, the growth morphology entry in assay [8] (ETP exposure, KPC clinical isolate, FIG. 19) was “abnormal growth morphology”.

On to `[Cl-].[Na+]` [NaCl, sodium chloride], for which the “cells that did not exhibit a response” value with E. coli [9] (heat killed cells) stood at 90%. Moreover, the “cells decreasing in size” value in the assay with E. coli [9] (overnight refrigerator stock cultures) worked out at 77%.

In the case of `Cc1onc(-c2ccccc2)c1C(=O)N[C@@H]1C(=O)N2[C@@H]1SC(C)(C)[C@@H]2C(=O)O` [OXA, oxacillin], the “Cx (culture result) susceptibility” value in assay [5] (specimen DH 425, Mini-BAL) is recorded as “S”; in assay [5] (specimen DH 427, Mini-BAL), “S”; in assay [5] (specimen DH 439, Mini-BAL), “R”; in [5] (specimen DH 440, BAL), “S”; in assay [5] (specimen DH 457, BAL), “S”; in [5] (specimen DH 485, BAL) it was “S”. The “Cx (culture result) susceptibility” value in assay [5] (specimen DH 509, BAL) is reported as “S”; in assay [5] (specimen DH 514, Mini-BAL), “S”; in assay [5] (specimen DH 543, BAL) it was “S”; in assay [5] (specimen DH 550, BAL) it was “S”; in [5] (specimen DH 556, Mini-BAL), “S”; in [5] (specimen T12, ETA), “R”.

Consider `CC[N+](C)(CC)CCC[n+]1c(-c2ccccc2)c2cc(N)ccc2c2ccc(N)cc21.[I-].[I-]` [PI, Propidium iodide], for which, in the assay with damaged membranes, the “fluorescent signal intensity vs. background” value was “not as high as for YO-PRO-1”.

On to “carboxyfluorescein diacetate succinimidyl ester [CFDA-SE]”, for which, in assay [10], the fluorescence result is reported as “no fluorescence was observed”.
